These are literature values, as cited in patent US7638651B2, “Substituted cyclohexanones” (Auspex Pharmaceuticals, priority 2007, dated 2009).

Molecules are shown by their SMILES.

For data set [1] the following is noted: for half-life: ketamine: depending on the mode of administration.

For `CN[C@]1(c2ccccc2Cl)CCCCC1=O` (single isomer, unassigned) [S-(+) isomer], for the setting “more potent than the R-(−) isomer”, the “potency relative to the R-(−) isomer” value was “approximately four”.

Take `CNC1(c2ccccc2Cl)CCCCC1=O` (centres unmarked) [Ketamine]: the “blood to plasma ratio” value in data set [1] (in vivo) is recorded as about 0.82. Further, in data set [1], the half-life entry is listed as “two to about five”.

For `NC1(c2ccccc2Cl)CCCCC1=O` (centres unmarked) [Norketamine, N-desmethylketamine], for the setting “as potent as the parent drug (ketamine)”, the “potency relative to the parent drug” value is “roughly one third”. For the same compound, the half-life entry in data set [1] is “about five”.
